Values of other authors in patent publication US6372197B1, “Methods and compositions using norastemizole in combination with leukotriene inhibitors” (Sepracor Inc., priority 1998, dated 2002).
Like-named read-outs stand apart in the source and are kept apart here.

Key:
[1] = 373 patients
[2] = in some patients
[3] = tested on: leukotriene (LTH4, LTC4, LTD4, and LTE4) formation; settings: in vitro
[4] = tested on: leukotriene-dependent smooth muscle contractions; settings: in vitro, guinea pig airways
[5] = tested on: leukotriene-dependent smooth muscle contractions; settings: in vitro, human airways
LTB4 formation = settings: ex vivo, several species
[6] = in vivo
[7] = tested on: LTD4-induced influx of eosinophils; settings: in vivo
[8] = tested on: LTD4-induced increases in cutaneous vascular permeability; settings: in vivo
[9] = tested on: contractile activity of three leukotrienes; settings: in vitro, conducting airway smooth muscle from laboratory animals
[10] = tested on: contractile activity of three leukotrienes; settings: in vitro, conducting airway smooth muscle from humans

SMILES | efficacy ([1]; 400 mg) | efficacy ([1]; 600 mg four times daily) | adverse effects reported [2] | inhibition of leukotriene (LTH4, LTC4, LTD4, and LTE4) formation [3] | inhibition of leukotriene-dependent smooth muscle contractions [4] | inhibition of leukotriene-dependent smooth muscle contractions [5] | inhibition of LTB4 formation (LTB4 formation) | absorption [6] | metabolism [6] | inhaled LTD4-induced influx of eosinophils into animal lungs [7] | intradermal LTD4-induced increases in cutaneous vascular permeability [8] | antagonism of contractile activity of three leukotrienes [9] | antagonism of contractile activity of three leukotrienes [10]
CC(c1cc2ccccc2s1)N(O)C(N)=O (racemic) [Zileuton, (±)-1-(1-Benso[b]thien-2-ylethyl)-1-hydroxyurea] | failed to do so | required to provide efficacy | headache, pain, asthenia, dyspepsia, nausea, and myalgia | inhibit | inhibits | inhibits | inhibitor | – | – | – | – | – | –
COc1ccc(CCN2CCC(Nc3nc4ccccc4n3Cc3ccc(F)cc3)CC2)cc1 [Astemizole] | – | – | – | – | – | – | – | well absorbed | extensively metabolized | – | – | – | –
COc1cc(C(=O)NS(=O)(=O)c2ccccc2C)ccc1Cc1cn(C)c2ccc(NC(=O)OC3CCCC3)cc12 [Zafirlukast, 4-(5-cyclopentyloxy-carbonylamino-1-methyl-indol-8-ylmethyl)-3-methoxy-N-o-tolylsulfonylbenzamide] | – | – | headache, infection, nausea, diarrhea, pain, asthenia, abdominal pain, dizziness, myalgia, fever, vomiting, SGPT elevation, and dyspepsia | – | – | – | – | – | – | inhibited | prevented | antagonized | antagonized
